In ChEMBL document CHEMBL3885881, “DrugMatrix”:

Species: Rattus norvegicus
Assay: DrugMatrix - Regimen: Daily Repeat
Format: toxicity, organism-based, Sprague-Dawley
Design: regimen Daily Repeat, gender Male, age 6-8 weeks
Settings: in vivo, po, route oral GAVAGE, vehicle 100 % WATER; for ABSOLUTE BASOPHIL / ABSOLUTE EOSINOPHIL / ABSOLUTE LYMPHOCYTE / ABSOLUTE MONOCYTE / ABSOLUTE SEGMENTED NEUTROPHIL / BASOPHIL / EOSINOPHIL / ERYTHROCYTE COUNT / HEMATOCRIT / HEMOGLOBIN / LEUKOCYTE COUNT / LYMPHOCYTE / MEAN CORPUSCULAR HEMOGLOBIN / MEAN CORPUSCULAR HEMOGLOBIN CONCENTRATION / MEAN CORPUSCULAR VOLUME / MONOCYTE / NEUTROPHIL / NUCLEATED RED BLOOD CELLS / PLATELET COUNT: tissue Blood; for ALANINE AMINOTRANSFERASE / ALBUMIN / ALKALINE PHOSPHATASE / ASPARTATE AMINOTRANSFERASE / BLOOD UREA NITROGEN / CARBON DIOXIDE / CHLORIDE / CHOLESTEROL / CREATINE PHOSPHOKINASE / CREATININE / GLUCOSE / LACTATE DEHYDROGENASE / LIPASE / PHOSPHORUS / POTASSIUM / SODIUM / TOTAL BILIRUBIN / TOTAL PROTEIN / URIC ACID: tissue Plasma
[1] = 160 mg/kg, 120 h, dose level Low, time 5 day
[2] = 1000 mg/kg, 72 h, dose level High, time 3 day
[3] = 1000 mg/kg, 120 h, dose level High, time 5 day

## N[C@@H](Cc1ccc(O)c(O)c1)C(=O)O [LEVODOPA]
[1]
  ABSOLUTE BASOPHIL: 0 CELLS/uL
  ABSOLUTE EOSINOPHIL: 0 CELLS/uL
  ABSOLUTE LYMPHOCYTE: 7319.33 CELLS/uL
  ABSOLUTE MONOCYTE: 56 CELLS/uL
  ABSOLUTE SEGMENTED NEUTROPHIL: 1058 CELLS/uL
  BASOPHIL: 0%
  EOSINOPHIL: 0%
  ERYTHROCYTE COUNT: 5.23 x10E6/uL
  HEMATOCRIT: 34.27%
  HEMOGLOBIN: 13 G/DL
  LEUKOCYTE COUNT: 8.43 x10E3/uL
  LYMPHOCYTE: 87.67%
  MEAN CORPUSCULAR HEMOGLOBIN: 25.13 pg
  MEAN CORPUSCULAR HEMOGLOBIN CONCENTRATION: 38 G/DL
  MEAN CORPUSCULAR VOLUME: 66.13 fL
  MONOCYTE: 0.67%
  NEUTROPHIL: 11.67%
  NUCLEATED RED BLOOD CELLS: 0 /100WBC
  PLATELET COUNT: 1259.67 x10E3/uL
  ALANINE AMINOTRANSFERASE: 48 u/L
  ALBUMIN: 4.1 G/DL
  ALKALINE PHOSPHATASE: 360.33 u/L
  ASPARTATE AMINOTRANSFERASE: 84.33 u/L
  BLOOD UREA NITROGEN: 16 mg/dL
  CARBON DIOXIDE: 30.33 mmol/L
  CHLORIDE: 103 MEQ/L
  CHOLESTEROL: 58 mg/dL
  CREATINE PHOSPHOKINASE: 286.33 u/L
  CREATININE: 0.17 mg/dL
  GLUCOSE: 137 mg/dL
  LACTATE DEHYDROGENASE: 128 u/L
  LIPASE: 10 u/L
  PHOSPHORUS: 10.63 mg/dL
  POTASSIUM: 6.08 MEQ/L
  SODIUM: 145.37 MEQ/L
  TOTAL BILIRUBIN: 0.17 mg/dL
  TOTAL PROTEIN: 5.97 G/DL
  URIC ACID: 1.03 mg/dL
[2]
  ABSOLUTE BASOPHIL: 0 CELLS/uL
  ABSOLUTE EOSINOPHIL: 0 CELLS/uL
  ABSOLUTE LYMPHOCYTE: 14031 CELLS/uL
  ABSOLUTE MONOCYTE: 188.67 CELLS/uL
  ABSOLUTE SEGMENTED NEUTROPHIL: 780.33 CELLS/uL
  BASOPHIL: 0%
  EOSINOPHIL: 0%
  ERYTHROCYTE COUNT: 5.75 x10E6/uL
  HEMATOCRIT: 36.23%
  HEMOGLOBIN: 13.9 G/DL
  LEUKOCYTE COUNT: 15 x10E3/uL
  LYMPHOCYTE: 93.33%
  MEAN CORPUSCULAR HEMOGLOBIN: 24.2 pg
  MEAN CORPUSCULAR HEMOGLOBIN CONCENTRATION: 38.37 G/DL
  MEAN CORPUSCULAR VOLUME: 63 fL
  MONOCYTE: 1%
  NEUTROPHIL: 5.67%
  NUCLEATED RED BLOOD CELLS: 0.33 /100WBC
  PLATELET COUNT: 1320 x10E3/uL
  ALANINE AMINOTRANSFERASE: 57.33 u/L
  ALBUMIN: 4.13 G/DL
  ALKALINE PHOSPHATASE: 415 u/L
  ASPARTATE AMINOTRANSFERASE: 88 u/L
  BLOOD UREA NITROGEN: 14 mg/dL
  CARBON DIOXIDE: 32 mmol/L
  CHLORIDE: 101.67 MEQ/L
  CHOLESTEROL: 54.33 mg/dL
  CREATINE PHOSPHOKINASE: 336.67 u/L
  CREATININE: 0.2 mg/dL
  GLUCOSE: 120 mg/dL
  LACTATE DEHYDROGENASE: 167.33 u/L
  LIPASE: 10.33 u/L
  PHOSPHORUS: 11 mg/dL
  POTASSIUM: 6.09 MEQ/L
  SODIUM: 145.53 MEQ/L
  TOTAL BILIRUBIN: 0.17 mg/dL
  TOTAL PROTEIN: 6.07 G/DL
  URIC ACID: 0.8 mg/dL
[3]
  ABSOLUTE BASOPHIL: 0 CELLS/uL
  ABSOLUTE EOSINOPHIL: 0 CELLS/uL
  ABSOLUTE LYMPHOCYTE: 11289.33 CELLS/uL
  ABSOLUTE MONOCYTE: 104.67 CELLS/uL
  ABSOLUTE SEGMENTED NEUTROPHIL: 539.33 CELLS/uL
  BASOPHIL: 0%
  EOSINOPHIL: 0%
  ERYTHROCYTE COUNT: 6.06 x10E6/uL
  HEMATOCRIT: 37.27%
  HEMOGLOBIN: 14.47 G/DL
  LEUKOCYTE COUNT: 11.93 x10E3/uL
  LYMPHOCYTE: 95.33%
  MEAN CORPUSCULAR HEMOGLOBIN: 23.87 pg
  MEAN CORPUSCULAR HEMOGLOBIN CONCENTRATION: 38.83 G/DL
  MEAN CORPUSCULAR VOLUME: 61.43 fL
  MONOCYTE: 0.67%
  NEUTROPHIL: 4%
  NUCLEATED RED BLOOD CELLS: 0 /100WBC
  PLATELET COUNT: 1582 x10E3/uL
  ALANINE AMINOTRANSFERASE: 46.33 u/L
  ALBUMIN: 4.17 G/DL
  ALKALINE PHOSPHATASE: 308.33 u/L
  ASPARTATE AMINOTRANSFERASE: 68 u/L
  BLOOD UREA NITROGEN: 20.33 mg/dL
  CARBON DIOXIDE: 33.67 mmol/L
  CHLORIDE: 101.67 MEQ/L
  CHOLESTEROL: 59.33 mg/dL
  CREATINE PHOSPHOKINASE: 271.67 u/L
  CREATININE: 0.21 mg/dL
  GLUCOSE: 124 mg/dL
  LACTATE DEHYDROGENASE: 116.67 u/L
  LIPASE: 10 u/L
  PHOSPHORUS: 10.37 mg/dL
  POTASSIUM: 6.24 MEQ/L
  SODIUM: 147.43 MEQ/L
  TOTAL BILIRUBIN: 0.17 mg/dL
  TOTAL PROTEIN: 6.13 G/DL
  URIC ACID: 1.2 mg/dL
